Test results as given in patent US20240358692A1, “TREATMENT OF SCLERODERMA” (Aisa Pharma, Inc., priority 2023, published 2024).

Tested on: participants with SSc-RP
Test: SHAQ - Visual Analog Scale - Intestinal Problems
Format: in vivo, human
Set-up: Visual Analog Scale-Intestinal Problems, In Clinic Visit (Day 12), Mean / Visual Analog Scale-Intestinal Problems, In Clinic Visit (Day 12), Median / Visual Analog Scale-Intestinal Problems, Change from Baseline, Mean / Visual Analog Scale-Intestinal Problems, Change from Baseline, Median / SHAQ Visual Analogue Scale - Intestinal Problems, In-Clinic Visit (Day 12), Median: scale not given here
Excerpt: The standard, validated, patient reported outcome measures tool for SSc patients, the Scleroderma Health Assessment Questionnaire (SHAQ), will be used to assess the participant qualify of life. Details are attached in the Appendix. The participant quality of life will be scored, and a disability index calculated for each questionnaire completed by the patient at Screening and each in-clinic visit. The absolute change in participant quality of life from baseline to the end of each dosing period will be calculated similar to frequency data as before.
The standard, validated, patient reported outcome measures tool for SSc patients, the SHAQ, was collected at the time points specified in the study schedules (FIG. 2 and FIGS. 4A and 4B) to assess the participant's quality of life. The SHAQ included a Raynaud's VAS that will also be reported separately.

[1] = Modified ITT Population-Part A, dose cilnidipine 10 mg, tadalafil 5 mg, alone or combined as labelled
[2] = Pooled Cilnidipine (N = 8), Day 12, PP Population, Part A
[3] = pooled Cilnidipine 10 mg and Cilnidipine 10 mg + Tadalafil 5 mg
[4] = pooled Cilnidipine 20 mg and Cilnidipine 20 mg + Tadalafil 5 mg
[5] = pooled cilnidipine 10 mg and 20 mg arms (combination: + tadalafil 5 mg)

SMILES: COCCOC(=O)C1=C(C)NC(C)=C(C(=O)OC/C=C/c2ccccc2)C1c1cccc([N+](=O)[O-])c1 (stereo not shown) [Cilnidipine]
- Visual Analog Scale-Intestinal Problems, Percent Change from Baseline, Median (Modified ITT Population-Part A, Day 12, dose cilnidipine 20 mg, tadalafil 5 mg, alone or combined as labelled): 35.00%
- Visual Analog Scale-Intestinal Problems, In Clinic Visit (Day 12), Mean [1]: 1.100
- Visual Analog Scale-Intestinal Problems, In Clinic Visit (Day 12), Median [1]: 0.300
- Visual Analog Scale-Intestinal Problems, In Clinic Visit (Day 12), Median (Modified ITT Population-Part A, dose cilnidipine 20 mg, tadalafil 5 mg, alone or combined as labelled): 1.300
- SHAQ Visual Analogue Scale - Intestinal Problems, In-Clinic Visit (Day 12), Median (Pooled Cilnidipine 10 mg and Cilnidipine 10 mg + Tadalafil 5 mg (N = 9), Day 12, PP Population, Part A): 0.700
- SHAQ Visual Analogue Scale - Intestinal Problems, In-Clinic Visit (Day 12), Median (Pooled Cilnidipine 20 mg and Cilnidipine 20 mg + Tadalafil 5 mg (N = 8), Day 12, PP Population, Part A): 0.100
- SHAQ Visual Analogue Scale - Intestinal Problems, Change from Baseline, Mean (SD) [2]: −0.863 (1.8110)
- SHAQ Visual Analogue Scale - Intestinal Problems, In-Clinic Visit (Day 12), Mean (SD) [2]: 0.975 (1.3781)
- SHAQ Visual Analogue Scale - Intestinal Problems, Percent Change from Baseline, Mean (SD) [2]: −43.69 (64.404) %
- % Δ from baseline, Intestinal Problems mean (Pooled cilnidipine (n=5)): −32.4%
- VAS Intestinal Problems Change from Baseline Max [3]: 1.00
- VAS Intestinal Problems Change from Baseline Mean [3]: −1.228
- VAS Intestinal Problems Change from Baseline Median [3]: −0.250
- VAS Intestinal Problems Change from Baseline Min [3]: −4.40,
- VAS Intestinal Problems Change from Baseline Q1 [3]: −3.000,
- VAS Intestinal Problems Change from Baseline Q3 [3]: 0.000
- VAS Intestinal Problems Day 12 Max [3]: 3.80
- VAS Intestinal Problems Day 12 Median [3]: 0.700
- VAS Intestinal Problems Day 12 Min [3]: 0.00,
- VAS Intestinal Problems Day 12 Q1 [3]: 0.000,
- VAS Intestinal Problems Day 12 Q3 [3]: 1.900
- VAS Intestinal Problems Percent Change from Baseline Max [3]: 142.9%
- VAS Intestinal Problems Percent Change from Baseline Mean [3]: −27.93%
- VAS Intestinal Problems Percent Change from Baseline Min [3]: −100.0, %
- VAS Intestinal Problems Percent Change from Baseline Q1 [3]: −94.00, %
- VAS Intestinal Problems Percent Change from Baseline Q3 [3]: 15.00%
- VAS Intestinal Problems Change from Baseline Max [4]: 2.90
- VAS Intestinal Problems Change from Baseline Median [4]: 0.000
- VAS Intestinal Problems Change from Baseline Min [4]: −1.60,
- VAS Intestinal Problems Change from Baseline Q1 [4]: −0.300,
- VAS Intestinal Problems Change from Baseline Q3 [4]: 0.600
- VAS Intestinal Problems Day 12 Max [4]: 4.50
- VAS Intestinal Problems Day 12 Median [4]: 0.200
- VAS Intestinal Problems Day 12 Min [4]: 0.00,
- VAS Intestinal Problems Day 12 Q1 [4]: 0.000,
- VAS Intestinal Problems Day 12 Q3 [4]: 2.100
- VAS Intestinal Problems Percent Change from Baseline Max [4]: 181.3%
- VAS Intestinal Problems Percent Change from Baseline Median [4]: 30.00%
- VAS Intestinal Problems Percent Change from Baseline Min [4]: −100.0, %
- VAS Intestinal Problems Percent Change from Baseline Q1 [4]: −88.89, %
- VAS Intestinal Problems Percent Change from Baseline Q3 [4]: 40.00%
- VAS Intestinal Problems Change from Baseline Max [5]: 0.60
- VAS Intestinal Problems Change from Baseline Median [5]: 0.000
- VAS Intestinal Problems Change from Baseline Min [5]: −4.40,
- VAS Intestinal Problems Change from Baseline Q1 [5]: −3.000,
- VAS Intestinal Problems Change from Baseline Q3 [5]: 0.300
- VAS Intestinal Problems Day 12 Max [5]: 3.80
- VAS Intestinal Problems Day 12 Median [5]: 0.600
- VAS Intestinal Problems Day 12 Min [5]: 0.00,
- VAS Intestinal Problems Day 12 Q1 [5]: 0.000,
- VAS Intestinal Problems Day 12 Q3 [5]: 2.100
- VAS Intestinal Problems Percent Change from Baseline Max [5]: 40.0%
- VAS Intestinal Problems Percent Change from Baseline Min [5]: −100.0, %
- VAS Intestinal Problems Percent Change from Baseline Q1 [5]: −88.00, %
- VAS Intestinal Problems Percent Change from Baseline Q3 [5]: 30.00%
